Measured values: US10815247B2, “Functionalized NANOLUC inhibitors” (PROMEGA CORPORATION, priority 2016, dated 2020)
Like-named read-outs stand apart in the source and are kept apart here.

Molecular target: NanoLuc (Oplophorus gracilirostris, UniProt Q9GV45, A31E/A60N/A81I/F95D/I117V/K70R/L54V/L99Q/M102K/N193R/P142E/Q151K/Q38R/Q45L/V71I/Y165I)
Test: Inhibitor IC50 determination
Format: biochemical
Procedure: The following example provides the IC50 values for the compounds disclosed herein. NANOLUC® enzyme was diluted to 0.4 ng/ml in CO2 independent media+10% FBS to make the detection reagent. A 3× dilution series of each inhibitor was then made in the detection reagent. A “no inhibitor” control was also made for each sample. 50 ul of each inhibitor dilution was mixed with 50 ul of NanoGlo® buffer containing 20 μM furimazine (final furimazine concentration is 10 μM, which is at Km.), and luminescence was measured. Each sample was normalized to the “no inhibitor” control. The IC50 values were then determined using GraphPad Prism (log[inhibitor] vs. normalized response).

[1] = 0.4 ng/ml NANOLUC in CO2 independent media+10% FBS, final furimazine 10 μM, no pre-incubation noted, read-out: IC50

Chain of NanoLuc (Q9GV45 28-196 with tags or gaps with the stated changes limits assumed): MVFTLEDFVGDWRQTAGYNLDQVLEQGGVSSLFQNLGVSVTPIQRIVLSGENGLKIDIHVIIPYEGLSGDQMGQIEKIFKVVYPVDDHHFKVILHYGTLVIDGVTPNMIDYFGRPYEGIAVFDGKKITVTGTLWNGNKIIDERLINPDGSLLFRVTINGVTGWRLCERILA

SMILES | IC50 [nM] | IC50 [1] [nM]
CCN(C(=O)Cn1c(C(=O)N[C@H]2CC[C@H](C(=O)NCCCCCCNC(=O)c3ccc4c(c3)C(=O)OC43c4ccc(O)cc4Oc4cc(O)ccc43)CC2)cc2sccc21)c1cccc(C)c1 [JRW-0200, N-(trans-4-((6-(3′,6′-dihydroxy-3-oxo-3H-spiro[isobenzofuran-1,9′-xanthene]-5-carboxamido)hexyl)carbamoyl)cyclohexyl)-4-(2-(ethyl(m-tolyl)amino)-2-oxoethyl)-4H-thieno[3,2-b]pyrrole-5-carboxamide] | 49 | –
CCN(C(=O)Cn1c(C(=O)N[C@H]2CC[C@H](C(=O)OC)CC2)cc2sccc21)c1cccc(CBr)c1 [JRW-0466, methyl trans-4-(4-(2-((3-(bromomethyl)phenyl)(ethyl)amino)-2-oxoethyl)-4H-thieno[3,2-b]pyrrole-5-carboxamido)cyclohexane-1-carboxylate] | 2.1 | –
CCN(C(=O)Cn1c(C(=O)N[C@H]2CC[C@H](C(=O)NCCCCCC(=O)NCCOCCOCCC(=O)ON3C(=O)CCC3=O)CC2)cc2sccc21)c1cccc(C)c1 [JRW-0520, 2,5-dioxopyrrolidin-1-yl 1-(trans-4-(4-(2-(ethyl(m-tolyl)amino)-2-oxoethyl)-4H-thieno[3,2-b]pyrrole-5-carboxamido)cyclohexyl)-1,8-dioxo-12,15-dioxa-2,9-diazaoctadecan-18-oate] | 94 | –
CCN(C(=O)Cn1c(C(=O)N[C@H]2CC[C@H](C(=O)NCCCCCC(=O)NCCOCCOCCOCCC(=O)ON3C(=O)CCC3=O)CC2)cc2sccc21)c1cccc(C)c1 [JRW-0525] | 84 | –
CCN(C(=O)Cn1c(C(=O)N[C@H]2CC[C@H](C(=O)NCCCCCC(=O)NCCOCCOCCOCCOCCC(=O)ON3C(=O)CCC3=O)CC2)cc2sccc21)c1cccc(C)c1 [JRW-0533] | 92 | –
CCN(C(=O)Cn1c(C(=O)N[C@H]2CC[C@H](C(=O)NCCCCCCNC(=O)CCOCCOCCNC(=O)CCN3C(=O)C=CC3=O)CC2)cc2sccc21)c1cccc(C)c1 [JRW-0559] | 33 | –
CCc1cccc(N(CC)C(=O)Cn2c(C(=O)N[C@H]3CC[C@H](C(=O)NCCCCCCCC(=O)OC)CC3)cc3ccccc32)c1 [JRW-0597, methyl 8-(trans-4-(1-(2-(ethyl(3-ethylphenyl)amino)-2-oxoethyl)-1H-indole-2-carboxamido)cyclohexane-1-carboxamido)octanoate] | 0.16 | –
CCc1cccc(N(CC)C(=O)Cn2c(C(=O)N[C@H]3CC[C@H](C(=O)NCCCCCCCC(=O)Oc4ccccc4)CC3)cc3ccccc32)c1 [JRW-0605, phenyl 8-(trans-4-(1-(2-(ethyl(3-ethylphenyl)amino)-2-oxoethyl)-1H-indole-2-carboxamido)cyclohexane-1-carboxamido)octanoate] | 0.12 | –
CCc1cccc(N(CC)C(=O)Cn2c(C(=O)N[C@H]3CC[C@H](C(=O)NCCCCCCI)CC3)cc3ccccc32)c1 [JRW-0622, 1-(2-(ethyl(3-ethylphenyl)amino)-2-oxoethyl)-N-(trans-4-((6-iodohexyl)carbamoyl)cyclohexyl)-1H-indole-2-carboxamide] | 0.14 | –
CCc1cccc(N(CC)C(=O)Cn2c(C(=O)N[C@H]3CC[C@H](C(=O)NCCCCCCBr)CC3)cc3ccccc32)c1 [JRW-0626, N-(trans-4-((6-bromohexyl)carbamoyl)cyclohexyl)-1-(2-(ethyl(3-ethylphenyl)amino)-2-oxoethyl)-1H-indole-2-carboxamide] | 0.2 | –
CCc1cccc(N(CC)C(=O)Cn2c(C(=O)N[C@H]3CC[C@H](C(=O)NCCCCCCNC(=O)c4ccc5c(c4)C(=O)OC54c5ccc(O)cc5Oc5cc(O)ccc54)CC3)cc3ccccc32)c1 [JRW-0818, N-(trans-4-((6-(3′,6′-dihydroxy-3-oxo-3H-spiro[isobenzofuran-1,9′-xanthene]-5-carboxamido)hexyl)carbamoyl)cyclohexyl)-1-(2-(ethyl(3-ethylphenyl)amino)-2-oxoethyl)-1H-indole-2-carboxamide] | 1.2 | –
CCc1cccc(N(CC)C(=O)Cn2c(C(=O)N[C@H]3CC[C@H](C(=O)NCCCCCCNC(=O)c4ccc5c(c4)C4(OC5=O)c5ccc(N(C)C)cc5Oc5cc(N(C)C)ccc54)CC3)cc3ccccc32)c1 [JRW-822, N-(trans-4-((6-(3′,6′-bis(dimethylamino)-3-oxo-3H-spiro[isobenzofuran-1,9′-xanthene]-6-carboxamido)hexyl)carbamoyl)cyclohexyl)-1-(2-(ethyl(3-ethylphenyl)amino)-2-oxoethyl)-1H-indole-2-carboxamide] | 3.3 | –
CCN(C(=O)Cn1c(C(=O)N[C@H]2CC[C@H](C(=O)NCCCCCCNC(=O)c3ccc4c(c3)C3(OC4=O)c4ccc(N(C)C)cc4Oc4cc(N(C)C)ccc43)CC2)cc2sccc21)c1cccc(C)c1 [JRW-0824] | 180 | –
CCc1cccc(N(CC)C(=O)Cn2c(C(=O)N[C@H]3CC[C@H](C(=O)NCCCCCCNC(=O)CCc4ccc5n4[B-](F)(F)[N+]4=C(C)C=C(C)C4=C5)CC3)cc3ccccc32)c1 [JRW-0827, N-(trans-4-((6-(3-(5,5-difluoro-7,9-dimethyl-5H-514,614-dipyrrolo[1,2-c:2′,1′-f][1,3,2]diazaborinin-3-yl)propanamido)hexyl)carbamoyl)cyclohexyl)-1-(2-(ethyl(3-ethylphenyl)amino)-2-oxoethyl)-1H-indole-2-carboxamide] | 2.7 | –
CCN(C(=O)Cn1c(C(=O)N[C@H]2CC[C@H](C(=O)NCCCCCCNC(=O)CCc3ccc4n3[B-](F)(F)[N+]3=C(C)C=C(C)C3=C4)CC2)cc2sccc21)c1cccc(C)c1 [JRW-0829, N-(trans-4-((6-(3-(5,5-difluoro-7,9-dimethyl-5H-514,614-dipyrrolo[1,2-c:2′,1′-f][1,3,2]diazaborinin-3-yl)propanamido)hexyl)carbamoyl)cyclohexyl)-4-(2-(ethyl(m-tolyl)amino)-2-oxoethyl)-4H-thieno[3,2-b]pyrrole-5-carboxamide] | 480 | –
CCN(C(=O)Cn1c(C(=O)N[C@H]2CC[C@H](C(=O)NCCCCCCCC(=O)ON3C(=O)CC(S(=O)(=O)O)C3=O)CC2)cc2sccc21)c1cccc(C)c1 (stereo partly drawn) [JRW-0830, sodium 1-((8-(trans-4-(4-(2-(ethyl(m-tolyl)amino)-2-oxoethyl)-4H-thieno[3,2-b]pyrrole-5-carboxamido)cyclohexane-1-carboxamido)octanoyl)oxy)-2,5-dioxopyrrolidine-3-sulfonate] | 4.2 | –
CCN(C(=O)Cn1c(C(=O)N[C@H]2CC[C@H](C(=O)NCCCCCCCC(=O)Oc3ccc(F)cc3)CC2)cc2sccc21)c1cccc(C)c1 [JRW-0831] | 320 | –
CCN(C(=O)Cn1c(C(=O)N[C@H]2CC[C@H](C(=O)NCCCCCCCC(=O)Oc3cc(F)cc(F)c3)CC2)cc2sccc21)c1cccc(C)c1 [JRW-0833, 3,5-difluorophenyl 8-(trans-4-(4-(2-(ethyl(m-tolyl)amino)-2-oxoethyl)-4H-thieno[3,2-b]pyrrole-5-carboxamido)cyclohexane-1-carboxamido)octanoate] | 20 | –
CCN(C(=O)Cn1c(C(=O)N[C@H]2CC[C@H](C(=O)NCCCCCCCC(=O)Oc3ccc(C#N)cc3)CC2)cc2sccc21)c1cccc(C)c1 [JRW-0834, 4-cyanophenyl 8-(trans-4-(4-(2-(ethyl(m-tolyl)amino)-2-oxoethyl)-4H-thieno[3,2-b]pyrrole-5-carboxamido)cyclohexane-1-carboxamido)octanoate] | 3.3 | –
CCN(C(=O)Cn1c(C(=O)N[C@H]2CC[C@H](C(=O)NCCCCCNC(=O)CCl)CC2)cc2sccc21)c1cccc(C)c1 [JRW-0844, N-(trans-4-((5-(2-chloroacetamido)pentyl)carbamoyl)cyclohexyl)-4-(2-(ethyl(m-tolyl)amino)-2-oxoethyl)-4H-thieno[3,2-b]pyrrole-5-carboxamide] | 41 | –
CCN(C(=O)Cn1c(C(=O)N[C@H]2CC[C@H](C(=O)NCCCCCCNC(=O)CCl)CC2)cc2sccc21)c1cccc(C)c1 [JRW-0846, N-(trans-4-((6-(2-chloroacetamido)hexyl)carbamoyl)cyclohexyl)-4-(2-(ethyl(m-tolyl)amino)-2-oxoethyl)-4H-thieno[3,2-b]pyrrole-5-carboxamide] | 16 | –
CCN(C(=O)Cn1c(C(=O)N[C@H]2CC[C@H](C(=O)NCCCCCCCC(=O)Oc3c(F)c(F)cc(F)c3F)CC2)cc2sccc21)c1cccc(C)c1 [JRW-0847] | 0.3 | –
CCN(C(=O)Cn1c(C(=O)N[C@H]2CC[C@H](C(=O)NCCCCCCNC(=O)c3ccc4c(c3)C3(OC4=O)c4ccc(N)cc4Oc4cc(N)ccc43)CC2)cc2sccc21)c1cccc(C)c1 [JRW-0863] | – | 36
CCN(C(=O)Cn1c(C(=O)N[C@H]2CC[C@H](C(=O)NCCCCCNC(=O)CBr)CC2)cc2sccc21)c1cccc(C)c1 [JRW-0870, N-(trans-4-((5-(2-bromoacetamido)pentyl)carbamoyl)cyclohexyl)-4-(2-(ethyl(m-tolyl)amino)-2-oxoethyl)-4H-thieno[3,2-b]pyrrole-5-carboxamide] | 42 | –
CCc1cccc(N(CC)C(=O)Cn2c(C(=O)N[C@H]3CC[C@H](C(=O)NCCCCCCCCNC(=O)c4ccc5c(c4)C(=O)OC54c5ccc(O)cc5Oc5cc(O)ccc54)CC3)cc3ccccc32)c1 [JRW-0882, N-(trans-4-((8-(3′,6′-dihydroxy-3-oxo-3H-spiro[isobenzofuran-1,9′-xanthene]-5-carboxamido)octyl)carbamoyl)cyclohexyl)-1-(2-(ethyl(3-ethylphenyl)amino)-2-oxoethyl)-1H-indole-2-carboxamide] | 1.1 | –
CCN(C(=O)Cn1c(C(=O)N[C@H]2CC[C@H](C(=O)NCCCCCCCCNC(=O)c3ccc4c(c3)C(=O)OC43c4ccc(O)cc4Oc4cc(O)ccc43)CC2)cc2sccc21)c1cccc(C)c1 [JRW-0883] | 5.4 | –
CCN(C(=O)Cn1c(C(=O)N[C@H]2CC[C@H](C(=O)NCCCCCCCCNC(=O)c3ccc4c(c3)C(=O)OC43c4ccc(N)cc4Oc4cc(N)ccc43)CC2)cc2sccc21)c1cccc(C)c1 [JRW-0887] | – | 6.3
